Laboratory results as given in patent US8389236B2, “Assay” (Otago Innovation Limited, priority 2005, dated 2013).
Values joined by “and” are separate entries in the source; they are usually repeats but may differ in a detail not shown here. Equal values may be shown once.

Columns and labels:
[1] = tested on: HIV-1 gag/pol −1 frameshift signal sequence (HIV-1 frameshift construct); test: Dual fluorescent reporter (EGFP/DsRed) recoding assay in transiently transfected COS-7 cells, with Null 0 control construct; type: cell-based; settings: for Minus 1 Frameshift Construct EGFP signal, Average / Null 0 Frameshift Construct EGFP signal, Average: 485 excitation 520-P emission; for Minus 1 Frameshift Construct DsRed signal, Average / Null 0 Frameshift Construct DsRed signal, Average: 525 excitation 600LP emission; for Frameshift: DsRed 525 excitation/600LP emission
Description: Mammalian COS-7 cells were grown, harvested, trypsinised, washed and diluted to 1×10^5 cells/ml all under standard conditions.
The diluted cells were then split into two equal portions. One portion was transiently transfected with the recoding construct, and other with the Null 0 frame control construct. Transient transfection was performed using 2 μL of FuGENE® 6 transfection reagent (Roche) and 500 ng of DNA for every mL of cells, in accordance with the manufacturing instructions.
Transfected cells were seeded in 24 well plates under standard conditions. Cycloheximide was added in triplicate at 50 nM and the plates were then incubated for 48 hours at 37° C.
The cells were washed 3 times with Phosphate Buffered Saline (PBS) to remove any traces of culture medium. 100 ul of Passive Lysis buffer (Promega) was added. The cells were frozen. The frozen cells were then thawed and transferred to a 96 well plate, and fluorescence intensity was read in the BMG PolarStar plate reader.
Plate reader settings were as follows:
Filters 485 excitation, 520-P emission
Filters 544 excitation, 590 emission
[[DsRed signal: HIV-1 frameshift construct]/[EGFP signal: HIV-1 frameshift construct]]/[[DsRed signal: Null 0 frameshift construct]/[EGFP signal: Null 0 frameshift construct]]
The diluted cells were then split into two equal portions. One portion was transfected, as described in Example 3, with the recoding construct, and other with the Null 0 frame control construct.
Cells were then seeded in 24 well plates under standard conditions. Anisomycin was added in triplicate at 50 nM and the plates were then incubated for 48 hours at 37° C.
The cells were prepared as described in examples 3 and 4.
DsRed signal at 525 excitation, 600LP emission
EGFP signal at 485 excitation, 520-P emission
Frameshift figures, shown in Table 5, were calculated using the formula shown in Example 3 using data from Tables 1, 2, 3 and 4.
Transfected cells were prepared as described in Example 5, and treated with 0 nM (no drug) 100 nM, 200 nM, 300 nM, 400 nM and 500 nM concentrations of anisomycin.
Incubation, plate reader setting and readings were as described in Example 5.
For the anisomycin titrations, the frameshift figures, shown in Table 10, were calculated using the formula shown in Example 3 using data from Tables 6, 7, 8 and 9.

[2] = tested on: HIV-1 gag/pol −1 frameshift signal sequence (HIV-1 frameshift construct); test: Stably transfected dual fluorescent reporter recoding assay in Flp-In CV1 cells (−1 frame construct); type: cell-based; settings: for DsRed/EGFP ratio / Percentage decrease in ratio / Minus 1 Frameshift Construct EGFP signal, Average / Minus 1 Frameshift Construct DsRed signal, Average: 120 hours; for DsRed/EGFP ratio / Percentage decrease in ratio: stable Flp-In CV1 cells; for DsRed/EGFP ratio: not normalised to Null 0, expressed as a percentage; for Percentage decrease in ratio: vs no drug; for Minus 1 Frameshift Construct EGFP signal, Average: 485 excitation 515 emission; for Minus 1 Frameshift Construct DsRed signal, Average: 535 excitation 590 emission
Description: The translational recoding construct described above was excised via Hind III and Not I restrictions sites and ligated into a Flp-In™ pcDNA5/FRT expression vector (Invitrogen Life Technologies) before being stably transformed into Flp-In™ CV1 cells (Invitrogen Life Technologies) according to the manufacturer's instructions.
Flp-In CV1 cells (CV1 cells), as described in Example 2, transfected with the −1 frame construct, and untransfected CV1 cells were grown, harvested, trypsinised, washed and diluted to 1×10^5 cells/ml all under standard conditions.
Cells were then seeded in 96 well plates under standard conditions. The plates were then incubated for 120 hours at 37° C.
The cells were washed 3 times with Phosphate Buffered Saline (PBS) to remove any traces of culture medium. 100 ul of Passive Lysis buffer (Promega) was added. The cells were frozen. The frozen cells were then thawed and fluorescence intensity was read in the Tecan Genios Pro plate reader.
Plate reader setting were as follows:
Filters 485 excitation, 515 emission
Filters 535 excitation, 590 emission
As a Null 0 frameshift construct was not used in this experiment ratios of the DsRed to EGFP signal were calculated to take into account the decrease in the EGFP signal with increasing drug concentrations.
The calculation was similar to example 3, with the counts averaged, the control cell counts removed before working out the ratio of the DsRed signal to the EGFP signal. Normalisation using a Null 0 frame construct could not be performed, with the results below being expressed as a percentage. The calculation was a follows: [[DsRed signal: HIV-1 frameshift construct]/[EGFP signal: HIV-1 frameshift construct]]

[3] = 50 nM, 48 hours, 485 excitation, 520-P emission
[4] = 50 nM, 48 hours, 544 excitation, 590 emission
[5] = 100 nM, COS-7, 525/600LP filters, vs no drugs

C[C@@H]1C[C@@H]([C@H](O)CC2CC(=O)NC(=O)C2)C(=O)[C@@H](C)C1 [Cycloheximide]
decrease in frameshift from the original (no drug) value ([1]; 50 nM, 48 hours, COS-7, 544/590 filters): 5% | absolute change frameshift efficiency ([1]; 50 nM, 48 hours, COS-7, vs no drug control, 544/590 filters): 0.29% | EGFP signal, HIV-1 frameshift construct, average [1, 3]: 24268 RFU | EGFP signal, HIV-1 frameshift construct, average minus control [1, 3]: 23858 RFU | EGFP signal, Null 0 frameshift construct, average [1, 3]: 42054 RFU | EGFP signal, Null 0 frameshift construct, average minus control [1, 3]: 41644 RFU | DsRed signal, HIV-1 frameshift construct, average [1, 4]: 1447 RFU | DsRed signal, HIV-1 frameshift construct, average minus control [1, 4]: 1342 RFU | DsRed signal, Null 0 frameshift construct, average [1, 4]: 43596 RFU | DsRed signal, Null 0 frameshift construct, average minus control [1, 4]: 43491 RFU | Minus 1 Frameshift Construct EGFP signal, Average ([1]; 100 nM): 23068 | Null 0 Frameshift Construct EGFP signal, Average ([1]; 100 nM): 41181 | Minus 1 Frameshift Construct DsRed signal, Average ([1]; 100 nM): 2384 | Null 0 Frameshift Construct DsRed signal, Average ([1]; 100 nM): 39126 | Percentage decrease in frameshift [1, 5]: 2.7% and 2.71% | absolute change in frameshift efficiency [1, 5]: 0.23% | Frameshift ([1]; 100 nM, COS-7): 8.25% | Minus 1 Frameshift Construct EGFP signal, Average ([1]; 200 nM): 25793 | Null 0 Frameshift Construct EGFP signal, Average ([1]; 200 nM): 42120 | Minus 1 Frameshift Construct DsRed signal, Average ([1]; 200 nM): 2567 | Null 0 Frameshift Construct DsRed signal, Average ([1]; 200 nM): 40152 | Percentage decrease in frameshift ([1]; 200 nM, COS-7, 525/600LP filters, vs no drugs): 4.51% | Frameshift ([1]; 200 nM, COS-7): 8.10% | Minus 1 Frameshift Construct EGFP signal, Average ([1]; 300 nM): 27197 | Null 0 Frameshift Construct EGFP signal, Average ([1]; 300 nM): 46595 | Minus 1 Frameshift Construct DsRed signal, Average ([1]; 300 nM): 2674 | Null 0 Frameshift Construct DsRed signal, Average ([1]; 300 nM): 45168 | Percentage decrease in frameshift ([1]; 300 nM, COS-7, 525/600LP filters, vs no drugs): 6.17% | Frameshift ([1]; 300 nM, COS-7): 7.96% | Minus 1 Frameshift Construct EGFP signal, Average ([1]; 400 nM): 27613 | Null 0 Frameshift Construct EGFP signal, Average ([1]; 400 nM): 42950 | Minus 1 Frameshift Construct DsRed signal, Average ([1]; 400 nM): 2704 | Null 0 Frameshift Construct DsRed signal, Average ([1]; 400 nM): 41311 | Percentage decrease in frameshift ([1]; 400 nM, COS-7, 525/600LP filters, vs no drugs): 5.52% | Frameshift ([1]; 400 nM, COS-7): 8.01% | Minus 1 Frameshift Construct EGFP signal, Average ([1]; 500 nM): 28615 | Null 0 Frameshift Construct EGFP signal, Average ([1]; 500 nM): 42742 | Minus 1 Frameshift Construct DsRed signal, Average ([1]; 500 nM): 2790 | Null 0 Frameshift Construct DsRed signal, Average ([1]; 500 nM): 41338 | Percentage decrease in frameshift ([1]; 500 nM, COS-7, 525/600LP filters, vs no drugs): 5.66% | Frameshift ([1]; 500 nM, COS-7): 8.00% | effect on −1 frameshifting ([1]; result in words): antagonists to −1 frameshifting | DsRed/EGFP ratio ([2]; 50 nM): 7.38% | Percentage decrease in ratio ([2]; 50 nM): 4.11% | Minus 1 Frameshift Construct EGFP signal, Average ([2]; 50 nM): 11313 | Minus 1 Frameshift Construct DsRed signal, Average ([2]; 50 nM): 1220 | DsRed/EGFP ratio ([2]; 100 nM): 7.28% | Percentage decrease in ratio ([2]; 100 nM): 5.39% | Minus 1 Frameshift Construct EGFP signal, Average ([2]; 100 nM): 11262 | Minus 1 Frameshift Construct DsRed signal, Average ([2]; 100 nM): 1210 | DsRed/EGFP ratio ([2]; 500 nM): 5.47% | Percentage decrease in ratio ([2]; 500 nM): 28.91% | Minus 1 Frameshift Construct EGFP signal, Average ([2]; 500 nM): 8638 | Minus 1 Frameshift Construct DsRed signal, Average ([2]; 500 nM): 948 | DsRed/EGFP ratio ([2]; 1000 nM): 3.25% | Percentage decrease in ratio ([2]; 1000 nM): 57.82% | Minus 1 Frameshift Construct EGFP signal, Average ([2]; 1000 nM): 7308 | Minus 1 Frameshift Construct DsRed signal, Average ([2]; 1000 nM): 818 | DsRed/EGFP ratio ([2]; 2000 nM): −2.94% | Percentage decrease in ratio ([2]; 2000 nM): 138.27% | Minus 1 Frameshift Construct EGFP signal, Average ([2]; 2000 nM): 6285 | Minus 1 Frameshift Construct DsRed signal, Average ([2]; 2000 nM): 688 | % decrease in ratio over concentration range ([2]; range between 50 nM and 2000 nM, stable cells, result in words): dose responsive effect
